Assays:
Conditions in all cases: 1 µM; binder
TIE2 = TIE2 (Homo sapiens, UniProt Q02763)
MAP3K4 = MAP3K4 (Homo sapiens, UniProt Q9Y6R4)
FLT4 = FLT4 (Homo sapiens, UniProt P35916)
EGFR(E746-A750del) = EGFR(E746-A750del) (Homo sapiens, UniProt P00533, DEL746-750)
CSNK1G2 = CSNK1G2 (Homo sapiens, UniProt P78368)
FER = FER (Homo sapiens, UniProt P16591)
CAMK1G = CAMK1G (Homo sapiens, UniProt Q96NX5)
S6K1 = S6K1 (Homo sapiens, UniProt P23443)
DYRK1A = DYRK1A (Homo sapiens, UniProt Q13627)
CLK2 = CLK2 (Homo sapiens, UniProt P49760)
NEK3 = NEK3 (Homo sapiens, UniProt P51956)
NEK11 = NEK11 (Homo sapiens, UniProt Q8NG66)
CAMK1 = CAMK1 (Homo sapiens, UniProt Q14012)
Chain of CAMK1 (Q14012 whole entry): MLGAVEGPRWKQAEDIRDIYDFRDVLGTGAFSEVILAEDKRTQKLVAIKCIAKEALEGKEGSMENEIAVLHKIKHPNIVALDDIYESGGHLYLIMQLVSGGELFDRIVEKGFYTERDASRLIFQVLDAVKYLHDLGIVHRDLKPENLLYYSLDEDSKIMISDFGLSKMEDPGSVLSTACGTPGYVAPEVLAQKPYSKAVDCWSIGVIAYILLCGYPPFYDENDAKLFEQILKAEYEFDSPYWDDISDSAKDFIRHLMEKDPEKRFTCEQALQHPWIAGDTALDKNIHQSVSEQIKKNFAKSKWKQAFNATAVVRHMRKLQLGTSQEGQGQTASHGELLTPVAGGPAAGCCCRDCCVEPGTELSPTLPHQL

HIPK1 = HIPK1 (Homo sapiens, UniProt Q86Z02)
CDK4 = CDK4 (Homo sapiens, UniProt P11802)
TLK2 = TLK2 (Homo sapiens, UniProt Q86UE8)
HCK = HCK (Homo sapiens, UniProt P08631)
MAP4K5 = MAP4K5 (Homo sapiens, UniProt Q9Y4K4)
CSNK1D = CSNK1D (Homo sapiens, UniProt P48730)
TNIK = TNIK (Homo sapiens, UniProt Q9UKE5)
PIM3 = PIM3 (Homo sapiens, UniProt Q86V86)
ZAP70 = ZAP70 (Homo sapiens, UniProt P43403)
CDKL5 = CDKL5 (Homo sapiens, UniProt O76039)
FGFR1 = FGFR1 (Homo sapiens, UniProt P11362)
EPHA8 = EPHA8 (Homo sapiens, UniProt P29322)
Chain of EPHA8 (P29322 whole entry): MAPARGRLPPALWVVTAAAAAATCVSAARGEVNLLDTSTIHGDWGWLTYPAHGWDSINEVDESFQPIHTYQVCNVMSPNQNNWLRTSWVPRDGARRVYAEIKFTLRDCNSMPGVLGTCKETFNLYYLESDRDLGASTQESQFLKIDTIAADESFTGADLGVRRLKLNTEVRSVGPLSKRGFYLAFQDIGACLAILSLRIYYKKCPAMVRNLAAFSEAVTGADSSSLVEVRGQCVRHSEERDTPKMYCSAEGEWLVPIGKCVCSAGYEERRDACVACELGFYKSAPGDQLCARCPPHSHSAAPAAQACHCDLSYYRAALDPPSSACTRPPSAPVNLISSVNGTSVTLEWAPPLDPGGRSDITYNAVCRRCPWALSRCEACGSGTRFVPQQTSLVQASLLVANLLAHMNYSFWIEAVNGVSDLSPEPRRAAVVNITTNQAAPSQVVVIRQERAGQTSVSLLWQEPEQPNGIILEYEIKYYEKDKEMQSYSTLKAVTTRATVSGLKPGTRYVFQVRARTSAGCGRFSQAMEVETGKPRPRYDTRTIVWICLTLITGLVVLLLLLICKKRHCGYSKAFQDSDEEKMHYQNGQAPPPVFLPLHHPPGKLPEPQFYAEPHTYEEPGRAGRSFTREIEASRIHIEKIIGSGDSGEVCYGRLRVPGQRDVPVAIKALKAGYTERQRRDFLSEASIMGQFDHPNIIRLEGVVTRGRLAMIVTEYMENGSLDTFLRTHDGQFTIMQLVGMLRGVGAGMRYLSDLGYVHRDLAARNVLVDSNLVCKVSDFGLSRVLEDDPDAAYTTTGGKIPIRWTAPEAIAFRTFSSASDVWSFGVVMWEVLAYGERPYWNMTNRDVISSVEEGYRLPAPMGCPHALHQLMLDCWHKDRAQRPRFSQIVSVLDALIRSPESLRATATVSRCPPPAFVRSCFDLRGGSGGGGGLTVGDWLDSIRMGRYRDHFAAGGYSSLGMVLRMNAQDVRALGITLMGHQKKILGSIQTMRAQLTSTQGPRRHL

EPHB3 = EPHB3 (Homo sapiens, UniProt P54753)
KIT(L576P) = KIT(L576P) (Homo sapiens, UniProt P10721, L576P)
BTK = BTK (Homo sapiens, UniProt Q06187)
PIM1 = PIM1 (Homo sapiens, UniProt P11309)
CDC42BPG = CDC42BPG (Homo sapiens, UniProt Q6DT37)

Chain of FER (P16591 whole entry): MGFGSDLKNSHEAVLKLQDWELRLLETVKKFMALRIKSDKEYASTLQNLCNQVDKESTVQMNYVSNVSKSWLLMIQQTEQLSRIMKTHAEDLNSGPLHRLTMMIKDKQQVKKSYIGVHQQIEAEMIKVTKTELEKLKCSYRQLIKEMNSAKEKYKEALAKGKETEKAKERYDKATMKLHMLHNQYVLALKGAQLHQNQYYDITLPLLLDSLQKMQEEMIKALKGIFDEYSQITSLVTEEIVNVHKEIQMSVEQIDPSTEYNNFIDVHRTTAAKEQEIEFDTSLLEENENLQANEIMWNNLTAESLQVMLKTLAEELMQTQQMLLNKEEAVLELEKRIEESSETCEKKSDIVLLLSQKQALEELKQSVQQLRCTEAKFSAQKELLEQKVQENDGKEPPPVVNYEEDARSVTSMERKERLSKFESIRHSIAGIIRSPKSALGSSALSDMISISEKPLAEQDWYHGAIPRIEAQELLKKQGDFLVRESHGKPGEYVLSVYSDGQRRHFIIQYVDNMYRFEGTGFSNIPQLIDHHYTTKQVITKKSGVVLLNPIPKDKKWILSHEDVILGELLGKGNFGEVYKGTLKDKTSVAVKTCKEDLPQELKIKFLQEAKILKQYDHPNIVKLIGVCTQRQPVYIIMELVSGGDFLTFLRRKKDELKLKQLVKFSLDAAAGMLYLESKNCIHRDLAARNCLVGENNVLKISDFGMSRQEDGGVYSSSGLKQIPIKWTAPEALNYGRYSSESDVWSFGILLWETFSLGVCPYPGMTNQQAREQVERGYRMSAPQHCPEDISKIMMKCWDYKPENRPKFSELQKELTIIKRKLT
Chain of MAP3K4 (Q9Y6R4 whole entry): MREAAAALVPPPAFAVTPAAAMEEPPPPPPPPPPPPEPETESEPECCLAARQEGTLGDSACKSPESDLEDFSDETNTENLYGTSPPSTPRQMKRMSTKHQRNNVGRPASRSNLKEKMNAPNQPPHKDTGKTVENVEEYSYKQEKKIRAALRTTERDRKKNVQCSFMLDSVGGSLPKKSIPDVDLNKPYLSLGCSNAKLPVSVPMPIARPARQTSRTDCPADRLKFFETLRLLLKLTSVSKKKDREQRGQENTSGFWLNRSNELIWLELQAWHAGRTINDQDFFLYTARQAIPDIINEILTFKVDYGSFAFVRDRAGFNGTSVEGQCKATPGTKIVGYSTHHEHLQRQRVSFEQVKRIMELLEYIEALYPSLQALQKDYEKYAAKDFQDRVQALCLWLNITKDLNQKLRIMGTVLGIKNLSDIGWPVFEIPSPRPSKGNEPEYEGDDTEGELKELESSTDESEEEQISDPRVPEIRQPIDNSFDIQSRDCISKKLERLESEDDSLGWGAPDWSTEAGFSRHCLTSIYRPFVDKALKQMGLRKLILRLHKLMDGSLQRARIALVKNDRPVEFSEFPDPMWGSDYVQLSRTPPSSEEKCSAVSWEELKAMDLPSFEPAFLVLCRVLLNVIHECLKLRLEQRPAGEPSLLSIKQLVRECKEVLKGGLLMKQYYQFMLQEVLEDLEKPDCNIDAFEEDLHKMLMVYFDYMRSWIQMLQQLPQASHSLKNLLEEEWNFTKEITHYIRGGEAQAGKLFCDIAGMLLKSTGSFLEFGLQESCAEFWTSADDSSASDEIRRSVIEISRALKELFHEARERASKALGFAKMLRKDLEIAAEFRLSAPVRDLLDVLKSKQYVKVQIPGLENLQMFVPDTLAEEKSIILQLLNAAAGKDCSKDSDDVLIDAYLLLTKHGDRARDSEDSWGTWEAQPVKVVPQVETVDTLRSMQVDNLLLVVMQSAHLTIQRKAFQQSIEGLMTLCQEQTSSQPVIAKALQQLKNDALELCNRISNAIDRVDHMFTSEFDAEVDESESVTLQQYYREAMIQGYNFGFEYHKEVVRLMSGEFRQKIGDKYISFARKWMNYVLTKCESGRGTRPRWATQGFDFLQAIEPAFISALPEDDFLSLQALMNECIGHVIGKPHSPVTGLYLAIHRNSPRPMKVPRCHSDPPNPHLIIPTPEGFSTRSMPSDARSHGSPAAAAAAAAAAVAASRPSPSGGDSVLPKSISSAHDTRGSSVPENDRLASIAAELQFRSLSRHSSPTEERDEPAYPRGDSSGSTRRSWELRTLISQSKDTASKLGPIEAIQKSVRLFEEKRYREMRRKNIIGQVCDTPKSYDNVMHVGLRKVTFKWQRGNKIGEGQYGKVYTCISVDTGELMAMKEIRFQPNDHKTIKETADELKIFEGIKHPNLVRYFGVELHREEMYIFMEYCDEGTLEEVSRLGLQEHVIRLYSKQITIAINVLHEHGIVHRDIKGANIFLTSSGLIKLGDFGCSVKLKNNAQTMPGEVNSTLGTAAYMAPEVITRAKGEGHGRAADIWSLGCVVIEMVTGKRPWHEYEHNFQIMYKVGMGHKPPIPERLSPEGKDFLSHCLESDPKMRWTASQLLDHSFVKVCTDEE
Chain of TIE2 (Q02763 whole entry): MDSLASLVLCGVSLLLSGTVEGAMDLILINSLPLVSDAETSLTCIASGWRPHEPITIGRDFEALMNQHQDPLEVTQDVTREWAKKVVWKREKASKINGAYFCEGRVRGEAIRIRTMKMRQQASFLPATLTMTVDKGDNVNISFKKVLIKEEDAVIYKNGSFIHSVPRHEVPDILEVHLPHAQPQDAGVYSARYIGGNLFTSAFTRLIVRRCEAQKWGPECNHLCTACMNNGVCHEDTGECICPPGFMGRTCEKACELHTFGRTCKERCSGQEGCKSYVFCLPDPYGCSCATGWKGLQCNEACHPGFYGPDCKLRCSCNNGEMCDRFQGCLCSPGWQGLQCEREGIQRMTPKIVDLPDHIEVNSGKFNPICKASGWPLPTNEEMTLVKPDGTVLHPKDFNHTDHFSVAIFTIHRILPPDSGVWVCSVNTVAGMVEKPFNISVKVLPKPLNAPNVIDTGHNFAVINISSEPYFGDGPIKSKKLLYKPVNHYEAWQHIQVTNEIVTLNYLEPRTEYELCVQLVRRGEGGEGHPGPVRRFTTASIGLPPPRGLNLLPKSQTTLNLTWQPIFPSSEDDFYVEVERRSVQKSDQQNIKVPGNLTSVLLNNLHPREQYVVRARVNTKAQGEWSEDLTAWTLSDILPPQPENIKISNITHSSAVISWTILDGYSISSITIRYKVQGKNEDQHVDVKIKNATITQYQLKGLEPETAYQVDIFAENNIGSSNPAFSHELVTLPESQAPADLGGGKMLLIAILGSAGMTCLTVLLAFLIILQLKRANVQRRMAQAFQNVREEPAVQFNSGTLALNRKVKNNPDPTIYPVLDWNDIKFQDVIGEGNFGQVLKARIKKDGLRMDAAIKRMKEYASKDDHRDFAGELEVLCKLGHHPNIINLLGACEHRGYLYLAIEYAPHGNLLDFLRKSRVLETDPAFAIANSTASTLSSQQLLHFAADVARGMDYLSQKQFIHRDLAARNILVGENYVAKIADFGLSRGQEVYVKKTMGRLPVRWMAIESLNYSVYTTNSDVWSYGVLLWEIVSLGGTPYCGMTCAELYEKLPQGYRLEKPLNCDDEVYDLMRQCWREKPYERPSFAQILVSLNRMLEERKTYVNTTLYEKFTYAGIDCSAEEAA

In the case of CNc1ncc2cc(-c3ccc(-c4cccc(C)n4)cc3Cl)c(=O)n(C[C@H]3OC[C@H](N)CO3)c2n1 [compound 6, G-5555], the “Percent Control” value (TIE2) is reported as 52%, the “Percent Control” value (MAP3K4) is reported as 52% and the “Percent Control” value (FLT4) is reported as 100%. For the same compound, the “Percent Control” value (EGFR(E746-A750del)) was 100%, the “Percent Control” value (CSNK1G2) was 83% and the “Percent Control” value (FER) was 100%. The “Percent Control” value (CAMK1G) was 99%, the “Percent Control” value (S6K1) was 58% and the “Percent Control” value (DYRK1A) was 100%. For the same compound, the “Percent Control” value (CLK2) was 100%, the “Percent Control” value (NEK3) was 72% and the “Percent Control” value (NEK11) was 100%. For the same compound, the “Percent Control” value (CAMK1) was 59%, the “Percent Control” value (HIPK1) was 100% and the “Percent Control” value (CDK4) was 100%. The “Percent Control” value (TLK2) was 100%, the “Percent Control” value (HCK) was 100% and the “Percent Control” value (MAP4K5) was 5.3%. The “Percent Control” value (CSNK1D) was 100%, the “Percent Control” value (TNIK) was 51% and the “Percent Control” value (PIM3) was 100%. The “Percent Control” value (ZAP70) was 100%, the “Percent Control” value (CDKL5) was 97% and the “Percent Control” value (FGFR1) was 100%. The “Percent Control” value (EPHA8) was 72%, the “Percent Control” value (EPHB3) was 100% and the “Percent Control” value (KIT(L576P)) was 100%. The “Percent Control” value (BTK) was 63%, the “Percent Control” value (PIM1) was 100% and the “Percent Control” value (CDC42BPG) was 15%.
